The record followed here is ChEMBL document CHEMBL5131475, “Metallo-β-lactamases inhibitor fisetin attenuates meropenem resistance in NDM-1-producing Escherichia coli” (Eur J Med Chem, 2022).

Calls of active or inactive are those of the source. The rule behind the calls is not given here.

Experiment [1] deals with Escherichia coli. Kind of experiment: Antibacterial activity against NDM-1 positive Escherichia coli ZC-YN3 isolates assessed as imipenem MIC incubated for 18 to 24 hrs by CLSI based broth microdilution method. The experiment is classed as functional. Conditions: time 18-24 hrs.
The test system of experiment [2] is Escherichia coli. Put plainly: Synergistic antibacterial activity against pET28a NDM-1 positive Escherichia coli BL21(DE3) isolates assessed as fractional Inhibitory concentration index incubated for 18 to 24 hrs in presence of kanamycin by CLSI based broth microdilution method. The experiment is classed as functional. The following applies: time 18-24 hrs. In general terms: In broth dilution the organism is exposed to a series of concentrations in liquid medium.

For experiment [3], the system named is Escherichia coli. Put plainly: Synergistic antibacterial activity against NDM-1 negative Escherichia coli ATCC25922 isolates assessed as fractional Inhibitory concentration index incubated for 18 to 24 hrs in presence of meropenem by CLSI based broth microdilution method. Format: functional. Conditions: time 18-24 hrs.
Experiment [4] relates to Escherichia coli. Put plainly: Antibacterial activity against pET28a-NDM-1 positive Escherichia coli BL21(DE3) isolates assessed as colistin MIC incubated for 18 to 24 hrs by CLSI based broth microdilution method. The experiment is classed as functional. Conditions: time 18-24 hrs.
For experiment [5], the system named is Escherichia coli. Kind of experiment: Synergistic antibacterial activity against NDM-1 negative Escherichia coli BL21(DE3) (pET28a) isolates assessed as fractional Inhibitory concentration index incubated for 18 to 24 hrs in presence of meropenem by CLSI based broth microdilution method. The following applies: time 18-24 hrs. The experiment is classed as functional.

Experiment [6] deals with Escherichia coli. Put plainly: Synergistic antibacterial activity against pET28a NDM-1 positive Escherichia coli BL21(DE3) isolates assessed as fractional Inhibitory concentration index incubated for 18 to 24 hrs in presence of colistin by CLSI based broth microdilution method. The following applies: time 18-24 hrs. Format: functional.
Experiment [7] has as its system Bacteria.
Description: Binding affinity to NDM-1 (unknown origin) assessed as binding constant by fluorescence quenching method
The test system of experiment [8] is Escherichia coli. Put plainly: Synergistic antibacterial activity against NDM-1 positive Escherichia coli ZC-YN3 isolates assessed as fractional Inhibitory concentration index incubated for 18 to 24 hrs in presence of streptomycin by CLSI based broth microdilution method. The experiment is classed as functional. The following applies: time 18-24 hrs.
Experiment [9] concerns Escherichia coli. Put plainly: Synergistic antibacterial activity against pET28a NDM-1 positive Escherichia coli BL21(DE3) isolates assessed as fractional Inhibitory concentration index incubated for 18 to 24 hrs in presence of cefotaxime by CLSI based broth microdilution method. Format: functional. Conditions: time 18-24 hrs.
Experiment [10] deals with Escherichia coli. Kind of experiment: Antibacterial activity against NDM-1 positive Escherichia coli ZC-YN3 isolates assessed as doxycycline MIC incubated for 18 to 24 hrs by CLSI based broth microdilution method. The experiment is classed as functional. Conditions: time 18-24 hrs.
The subject of experiment [11] is Bacteria. Kind of experiment: Inhibition of NDM-1 M248A mutant activity (unknown origin) in presence of zinc ion.
For experiment [12], the system named is Escherichia coli. Put plainly: Synergistic antibacterial activity against pET28a NDM-1 positive Escherichia coli BL21(DE3) isolates assessed as fractional Inhibitory concentration index incubated for 18 to 24 hrs in presence of doxycycline by CLSI based broth microdilution method. Format: functional. The following applies: time 18-24 hrs.
Experiment [13] concerns Bacteria. Put plainly: Inhibition of NDM-1 H250A mutant activity (unknown origin) in presence of zinc ion.
Experiment [14] has as its system Escherichia coli. Kind of experiment: Antibacterial activity against NDM-1 positive Escherichia coli ZC-YN3 isolates assessed as rifampicin MIC incubated for 18 to 24 hrs by CLSI based broth microdilution method. The experiment is classed as functional. Conditions: time 18-24 hrs.
The test system of experiment [15] is Escherichia coli. Put plainly: Antibacterial activity against pET28a-NDM-1 positive Escherichia coli BL21(DE3) isolates assessed as ciprofloxacin MIC incubated for 18 to 24 hrs by CLSI based broth microdilution method. Format: functional. The following applies: time 18-24 hrs.

In the case of `O=c1c(O)c(-c2ccc(O)c(O)c2)oc2cc(O)ccc12` [FISETIN], the MIC in experiment [1] worked out at 6.67 µg/mL; in [4] it was 1.67 µg/mL; in experiment [10], 53.3 µg/mL; in experiment [14] it was 10.7 µg/mL; in experiment [15], 341 µg/mL. In addition, the “fractional inhibitory concentration index (FICI)” value in experiment [2], in experiment [3], in experiment [5], in [6], in experiment [8] and in experiment [9] was 1.13 throughout. Also, in experiment [12], the “fractional inhibitory concentration index (FICI)” value came to 0.96. Also, in [7], the Ka was 12.2 10^5L/mol. For the same compound, the inhibition result in [11] and in experiment [13] was “Active” throughout.

For orientation: MIC means the least concentration at which growth counts as inhibited.
